Measurements taken from patent publication US6855728B2, “Small-molecule modulators of hepatocyte growth factor / scatter factor activities” (North Shore-Long Island Jewish Health System, priority 2001, dated 2005).

Test system: Endothelial cells (HUVECs)
Assay: Endothelial cell (HUVEC) proliferation assay, 3H thymidine incorporation, compound without added growth factor
Format: cell-based, human
Details: for activation at 5 µg/mL / activation at 10 µg/mL: 24 h; for activation at 5 µg/mL / Stimulation at 5 microg/ml / Stimulation/Inhibition at 5 microg/ml (result in words): 5 microg/ml; for activation at 5 µg/mL / activation at 10 µg/mL / Stimulation at 5 microg/ml / Stimulation at 10 microg/ml: stimulation of endothelial cell proliferation
Experimental: Cell proliferation assays Endothelial cells (HUVECs) were seeded in 48 well plates at a density of 10,000 to 20,000 cells per well in the normal growth medium (EGM-2-Clonetics) containing 2% fetal bovine serum, FGF, VEGF, IGF, ascorbic acid, EGF, GA, heparin and hydrocortisone. The cells were grown normally in the growth medium for 24 hr at 37 degrees C. and 5% CO2. The cells were then rinsed with RPMI-1% BSA and starved for 1-2 hrs. The stock solutions of all the compounds were made at a concentration of 10 mg/ml in DMSO and diluted in RPMI-1% BSA at a final concentrations of 1 to 12 microgram/ml. The cells were then washed and treated with the compounds and incubated for another 24 hr at 37 degrees C. Then ^3H thymidine (0.5 microgram/ml in RPMI-BSA) was added to the cells and incubated at 37 degrees C. for 4 to 5 hours. The unincorporated thymidine was removed by washing the cells four times with 1× PBS. Then the cells were lysed with 0.5M NaOH for 30 min and the radioactivity counted in the beta counter. […]

[1] = Homo sapiens, HUVEC, 10 microg/ml

## Cc1nn(S(=O)(=O)c2ccc(Cl)c(Cl)c2)c(C)c1Cc1c(F)cccc1Cl [4-(2-chloro-6-fluorobenzyl)-1-((3,4-dichlorophenyl)sulfonyl)-3,5-dimethyl-1H-pyrazole]
2 microgram/ml, without HGF/SF, stimulation of HUVEC proliferation
  Activity at 2 microgram/ml Without HGF/SF: stimulation: 73%

## O=C(c1ccc(Cl)cc1)n1ccc(-c2cc(-c3ccccc3)no2)n1 [(4-chlorophenyl)(3-(3-phenylisoxazol-5-yl)-1H-pyrazol-1-yl)methanone]
Homo sapiens, HUVEC
  activation at 5 µg/mL: 54%
[1]
  activation at 10 µg/mL: 60%

## Cc1nn(C(=O)c2ccc(Cl)cc2)c(C)c1Sc1nccn1C [(4-chlorophenyl)(3,5-dimethyl-4-((1-methyl-1H-imidazol-2-yl)thio)-1H-pyrazol-1-yl)methanone]
Homo sapiens, HUVEC
  activation at 5 µg/mL: 52%
[1]
  activation at 10 µg/mL: 50%

## C=C(C)Cc1c(C)nn(S(=O)(=O)c2ccccc2)c1O [3-methyl-4-(2-methylallyl)-1-(phenylsulfonyl)-1H-pyrazol-5-ol]
  Stimulation at 5 microg/ml: two fold stimulation
10 microg/ml
  Stimulation/Inhibition at 10 microg/ml (result in words): Not significant

## CS(=O)(=O)n1ccc(C=Cc2cccs2)n1 [1-(methylsulfonyl)-3-(2-(2-thienyl)vinyl)-1H-pyrazole]
10 microg/ml
  Stimulation/Inhibition at 10 microg/ml (result in words): Not significant
Homo sapiens, HUVEC
  activation at 5 µg/mL: 74%

## CC(C)(C)C(=O)n1ccc(C=Cc2cccs2)n1 [2,2-dimethyl-1-(3-(2-(2-thienyl)vinyl)-1H-pyrazole-1-yl)propan-1-one]
  Stimulation/Inhibition at 5 microg/ml (result in words): No effect
[1]
  activation at 10 µg/mL: 55%

## Cc1nc(-c2ccc(-c3cccs3)s2)sc1-c1ccn(C(=O)c2ccc(Cl)cc2)n1 [(4-chlorophenyl)(3-(2-(5-(2-thienyl)-2-thienyl)-4-methyl-1,3-thiazol-5-yl)-1H-pyrazol-1-yl)methanone]
Homo sapiens, HUVEC
  activation at 5 µg/mL: 20%
[1]
  activation at 10 µg/mL: 33%

## O=C(c1ccc(Cl)cc1)n1ccc(-c2ccc(-c3cccs3)s2)n1 [(4-chlorophenyl)(3-(5-(2-thienyl)-2-thienyl)-1H-pyrazol-1-yl)methanone]
Homo sapiens, HUVEC
  activation at 5 µg/mL: 40%
[1]
  activation at 10 µg/mL: 40%

## N#Cc1c(Cl)cccc1Oc1ccc(-c2ccnn2Cc2ccc(Cl)cc2)cc1 [2-chloro-6-(4-(1-(4-chlorobenzyl)-1H-pyrazol-5-yl)phenoxy)benzonitrile]
Homo sapiens, HUVEC
  activation at 5 µg/mL: 60%
[1]
  activation at 10 µg/mL: 90%

## O=C(c1ccc(Cl)cc1)n1ccc(C(c2ccccc2)c2ccccc2)n1 [(3-benzhydryl-1H-pyrazol-1-yl)(4-chlorophenyl)methanone]
  Stimulation/Inhibition at 5 microg/ml (result in words): No effect
[1]
  activation at 10 µg/mL: 25%

## Cc1onc(-c2c(Cl)cccc2Cl)c1C(=O)NN [3-(2,6-dichlorophenyl)-5-methylisoxazole-4-carbohydrazide]
2 microgram/ml, without HGF/SF
  Activity at 2 microgram/ml Without HGF/SF (result in words): not significant

## CCc1c[nH]nc1-c1c(F)cccc1F [3-(2,6-difluorophenyl)-4-ethyl-1H-pyrazole]
  Stimulation at 5 microg/ml: two fold stimulation
[1]
  activation at 10 µg/mL: 86%

## CCc1cn(C(=O)c2cccs2)nc1-c1c(F)cccc1F [[3-(2,6-difluorophenyl)-4-ethyl-1H-pyrazol-1-yl](2-thienyl)methanone]
  Stimulation at 5 microg/ml: 2.5 fold stimulation
10 microg/ml
  Stimulation at 10 microg/ml: two fold stimulation

## Cc1nn(C(=O)Nc2ccc(Cl)cc2Cl)c(C)c1Cc1csc2ccc(Cl)cc12 [4-[(5-chloro-1-benzothiophen-3-yl)methyl]-N-(2,4-dichlorophenyl)-3,5-dimethyl-1H-pyrazole-1-carboxamide]
Homo sapiens, HUVEC
  activation at 5 µg/mL: 75%
[1]
  activation at 10 µg/mL: 35%

## Cc1nn(S(=O)(=O)c2ccccc2Cl)c(C)c1-c1csc2ccc(Cl)cc12 [4(5-chlorobenzo(b)thiophen-3-yl)-1-(2-chlorophenyl)sulfonyl)-3,5dimethyl-1-H-pyrazole]
  Stimulation at 5 microg/ml: 1.8 fold stimulation
10 microg/ml
  Stimulation/Inhibition at 10 microg/ml (result in words): Not significant

## CNC(=O)n1nc(C)c(Cc2csc3ccc(Cl)cc23)c1C [4-[(5-chloro-1-benzothiophen-3-yl)methyl]-N,3,5-trimethyl-1H-pyrazole-1-carboxamide]
  Stimulation at 5 microg/ml: two fold stimulation
10 microg/ml
  Stimulation at 10 microg/ml: two fold stimulation

## CNC(=O)n1ccc(C=Cc2cccs2)n1 [N-methyl-3-(2-(2-thienyl)vinyl)-1H-pyrazole-1-carboxamide]
Homo sapiens, HUVEC
  activation at 5 µg/mL: 70%
[1]
  activation at 10 µg/mL: 42%

## Cc1nn(C(=O)Nc2cccc(Cl)c2)c(C)c1Cc1csc2ccc(Cl)cc12 [N1-(3-chlorophenyl)-4-[(5-chlorobenzo[b]thiophen-3-yl)methyl]-3,5-dimethyl-1H-pyrazole-1-carboxamide]
Homo sapiens, HUVEC
  activation at 5 µg/mL: 86%
[1]
  activation at 10 µg/mL: 40%

## O=C(Nc1ccccc1)n1ccc(C=Cc2cccs2)n1 [N1-phenyl-3-(2-(2-thienyl)vinyl)-1H-pyrazole-1-carboxamide]
10 microg/ml
  Stimulation/Inhibition at 10 microg/ml (result in words): Not significant
Homo sapiens, HUVEC
  activation at 5 µg/mL: 40%

## O=C(Nc1ccc(Cl)cc1)n1ccc(C=Cc2cccs2)n1 [N1-(4-chlorophenyl)-3-(2-(2-thienyl)vinyl)-1H-pyrazole-1-carboxamide]
  Stimulation/Inhibition at 5 microg/ml (result in words): No effect
[1]
  activation at 10 µg/mL: 55%

## Cc1nn(S(=O)(=O)c2cc(C(F)(F)F)cc(C(F)(F)F)c2)c(C)c1Cc1c(F)cccc1Cl [4-(2-chloro-6-fluorobenzyl)-1-{[3,5-di(trifluoromethyl)phenyl]sulfonyl}-3,5-dimethyl-1H-pyrarole]
  Stimulation at 5 microg/ml: 3.1 fold stimulation
10 microg/ml
  Stimulation at 10 microg/ml: 2.4 fold stimulation

## Cc1nn(C(=O)Nc2ccccc2)c(C)c1Cc1csc2ccc(Cl)cc12 [N1-phenyl-4-[(5-chlorobenzo[b]thiophen-3-yl)methyl]-3,5-dimethyl-1H-pyrazole-1-carboxamide]
  Stimulation at 5 microg/ml: two fold stimulation
[1]
  activation at 10 µg/mL: 45%

## CCc1cn(C(=O)C(C)(C)C)nc1-c1c(F)cccc1F [1-[3-(2,6-difluorophenyl)-4-ethyl-1H-pyrazol-1-yl]-2,2-dimethylpropan-1-one]
10 microg/ml
  Stimulation/Inhibition at 10 microg/ml (result in words): not significant
Homo sapiens, HUVEC
  activation at 5 µg/mL: 58%

## Cc1nn(C(=O)c2ccc([N+](=O)[O-])cc2)c(C)c1Cc1csc2ccc(Cl)cc12 [{4-[(5-chlorobenzo[b]thiophen-3-yl)methyl]-3,5-dimethyl-1H-pyrazol-1-yl}(4-nitrophenyl)methanone]
10 microg/ml
  Stimulation at 10 microg/ml: 2.5 fold stimulation
Homo sapiens, HUVEC
  activation at 5 µg/mL: 74%

## COC(=O)c1c(C)nn(C(=O)c2ccc(Cl)cc2)c1-c1ccno1 [methyl 1-(4-chlorobenzoyl)-5-isoxazol-5-yl-3-methyl-1H-pyrazole-4-carboxylate]
  Stimulation/Inhibition at 5 microg/ml (result in words): Not significant
[1]
  activation at 10 µg/mL: 33%

## CSc1cc(-c2ccc(Oc3ccccc3)cc2)nn1C(=O)c1ccc(Cl)cc1 [(4-chlorophenyl)(5-(methylthio)-3-(4-phenoxyphenyl)-1H-pyrazol-1-yl)methanone]
  Stimulation/Inhibition at 5 microg/ml (result in words): No effect
Homo sapiens, HUVEC, 10 microg/ml, inhibition of endothelial cell proliferation
  inhibition at 10 µg/mL: 40%

## Cc1nn(-c2ccccc2)c(O)c1Cc1c(Cl)cccc1Cl [4-(2,6-dichlorobenzyl)-3-methyl-1-phenyl-1H-pyrazol-5-ol]
  Stimulation at 5 microg/ml: 2.3 fold stimulation
10 microg/ml
  Stimulation at 10 microg/ml: two fold stimulation
